# Laboratory results reported in US8088806B2 (Achillion Pharmaceuticals, Inc., priority 2005, dated 2012).
# Test system: HCV replicon
# Test: Replicon based assay of HCV replication inhibition (NPT ELISA)
# Type: cell-based, Hepatitis C virus
# Conditions: Hepatitis C virus, Huh-7, 72 h, Table I; Huh-7 HCV replicon-containing cells, three days; read-out: Activity
# Description: Compounds claimed herein are tested for the ability to inhibit viral replication of the Hepatitis C replicon in cultured cells in which the HCV replicon construct has been incorporated. The HCV replicon system was described by Bartenschlager, et. al (Science, 285, pp. 110-113 (1999)). The replicon system is predictive of in vivo anti-HCV activity; compounds that are active in humans uniformly evidence activity in the replicon assay.
# In this assay HCV replicon containing cells are treated with different concentrations of the test compound to ascertain the ability of the test compound to suppress replication of the HCV replicon. As a positive control, HCV replicon-containing cells are treated with different concentrations of interferon alpha, a known inhibitor of HCV replication. The replicon assay system includes Neomycin Phosphotransferase (NPT) as a component of the replicon itself in order to detect the transcription of replicon gene products in the host cell. Cells in which the HCV replicon is actively replicating have high levels of NPT; the level of NPT is proportional to HCV replication. […] The NPT level of each sample is measured using a captured ELISA.
# A protocol for testing compounds for the ability to inhibit viral replication of the Hepatitis C replicon cultured cells in which the replicon construct has been incorporated, follows.
# The HCV replicon contains, 5′-3′, the HCV-IRES, the neomycin phosphotransferase (neo) gene, the IRES of encephalomyocarditis virus, which directs translation of HCV sequences NS3 to NS5B, and the 3′-NTR. The sequence of the HCV replicon has been deposited in GenBank (Accession no. AJ242652).
# The replicon is transfected into Huh-7 cells using standard methods such as electroporation.
# The equipment and materials include, but are not limited to, Huh-7 HCV replicon-containing cells, maintenance media (DMEM (Dulbecco's modified Eagle media) supplemented with 10% FBS, L-glutamine, non-essential amino acids, penicillin (100 units/ml), streptomycin (100 micrograms/ml), and 500 micrograms/ml of Geneticin (G418), screening media (DMEM supplemented with 10% FBS, L-glutamine, non-essential amino acids, penicillin (100 units/ml) and streptomycin (100 micrograms/ml)), 96 well tissue culture plates (flat bottom), 96 well plates (U bottom for drug dilution), Interferon alpha for positive control, fixation reagent (such as methanol: acetone), primary antibody (rabbit anti-NPTII), secondary antibody: Eu-N1l, and enhancement solution.
# The cells are then seeded onto 96-well plates at a density of 6000-7500 cells/100 microliters/well (6-7.5×10^5 cells/10 ml/plate). The plates are then incubated at 37° C. in a 5% CO2 incubator.
# HCV replicon-containing cells are rinsed with once PBS once; 2 mls of trypsin are then added. Cells are incubated at 37° C. in a 5% CO2 incubator for 3-5 minutes. 10 mls of complete medium is added to stop the reaction. Cells are blown gently, put into a 15 ml tube, and spun at 1200 rpm for four minutes. The trypsin/medium solution is removed and 5 mls of medium (500 ml DMEM (high glucose)) from BRL catalog #12430-054; 50 mls 10% FBS, 5% Geneticin G418 (50 mg/ml, BRL catalog #10131-035), 5 ml MEM non-essential amino acids (100×BRL #11140-050) and 5 ml pen-strep (BRL # 15140-148) is added. The cells and media are mixed carefully
# Cells are plated with screening medium (500 ml DMEM (BRL #21063-029), 50 ml FBS (BRL #10082-147) and 5 ml MEM non-essential amino acid (BRL #11140-050) at 6000-7500 cells/100 μl/well of 96 well plate (6-7.5×10^5 cells/10 ml/plate). Plates are placed into 37° C. 5% CO2 incubator overnight.
# The following morning, drugs (test compounds or interferon alpha) are diluted in 96 well U bottom plates with media or DMSO/media, depending on the final concentration chosen for screening. Generally for 6 concentrations of each test compounds ranging from 10 micromolar to 0.03 micromolar are applied. […]
row,SMILES,EC50
1,"Clc1ccc(-c2csc(Nc3ccc(Cc4ccccc4)cc3)n2)cc1 [compound 42, N-(4-benzylphenyl)-4-(4-chlorophenyl)thiazol-2-amine]",> 10 µM
2,"Fc1ccc(-c2csc(Nc3ccc(OC(F)(F)F)cc3)n2)cc1 [compound 43, 4-(4-fluorophenyl)-N-(4-(trifluoromethoxy)phenyl)thiazol-2-amine]",> 10 µM
3,"FC(F)(F)Oc1ccc(Nc2nc(-c3ccc(Cl)c(Cl)c3)cs2)cc1 [compound 44, 4-(3,4-dichlorophenyl)-N-(4-(trifluoromethoxy)phenyl)thiazol-2-amine]",> 10 µM
4,"Fc1ccc(-c2csc(Nc3ccc(OC(F)(F)F)cc3)n2)c(F)c1 [compound 45, 4-(2,4-difluorophenyl)-N-(4-(trifluoromethoxy)phenyl)thiazol-2-amine]",> 10 µM
5,"FC(F)(F)Oc1ccc(Nc2nc(-c3ccc(Cl)cc3)cs2)cc1 [compound 46, 4-(4-chlorophenyl)-N-(4-(trifluoromethoxy)phenyl)thiazol-2-amine]",> 10 µM
6,"Fc1ccc(-c2csc(Nc3ccc(Cl)c(Cl)c3)n2)cc1 [compound 47, N-(3,4-dichlorophenyl)-4-(4-fluorophenyl)thiazol-2-amine]",< 1 µM
7,"Clc1ccc(Nc2nc(-c3ccc(Cl)c(Cl)c3)cs2)cc1Cl [compound 48, N,4-bis(3,4-dichlorophenyl)thiazol-2-amine]",< 1 µM
8,"Fc1ccc(-c2csc(Nc3ccc(Cl)c(Cl)c3)n2)c(F)c1 [compound 49, N-(3,4-dichlorophenyl)-4-(2,4-difluorophenyl)thiazol-2-amine]",< 1 µM
9,"Clc1ccc(-c2csc(Nc3ccc(Cl)c(Cl)c3)n2)cc1 [compound 50, N-(3,4-dichlorophenyl)-4-(4-chlorophenyl)thiazol-2-amine]",> 10 µM
10,"N#Cc1ccc(Nc2nc(-c3ccc(F)cc3)cs2)cc1 [compound 51, 4-(4-(4-fluorophenyl)thiazol-2-ylamino)benzonitrile]",> 10 µM
11,"N#Cc1ccc(Nc2nc(-c3ccc(Cl)c(Cl)c3)cs2)cc1 [compound 52, 4-(4-(3,4-dichlorophenyl)thiazol-2-ylamino)benzonitrile]",> 10 µM
12,"N#Cc1ccc(Nc2nc(-c3ccc(F)cc3F)cs2)cc1 [compound 53, 4-(4-(2,4-difluorophenyl)thiazol-2-ylamino)benzonitrile]",> 10 µM
13,"N#Cc1ccc(Nc2nc(-c3ccc(Cl)cc3)cs2)cc1 [compound 54, 4-(4-(4-chlorophenyl)thiazol-2-ylamino)benzonitrile]",> 10 µM
14,"N#Cc1cccc(Nc2nc(-c3ccc(F)cc3)cs2)c1 [compound 55, 3-(4-(4-fluorophenyl)thiazol-2-ylamino)benzonitrile]",> 10 µM
15,"N#Cc1cccc(Nc2nc(-c3ccc(Cl)c(Cl)c3)cs2)c1 [compound 56, 3-(4-(3,4-dichlorophenyl)thiazol-2-ylamino)benzonitrile]",> 10 µM
16,"N#Cc1cccc(Nc2nc(-c3ccc(F)cc3F)cs2)c1 [compound 57, 3-(4-(2,4-difluorophenyl)thiazol-2-ylamino)benzonitrile]",> 10 µM
17,"N#Cc1cccc(Nc2nc(-c3ccc(Cl)cc3)cs2)c1 [compound 58, 3-(4-(4-chlorophenyl)thiazol-2-ylamino)benzonitrile]",> 10 µM
18,"Fc1ccc(-c2csc(Nc3ccc(Cl)c(C(F)(F)F)c3)n2)cc1 [compound 59, N-(4-chloro-3-(trifluoromethyl)phenyl)-4-(4-fluorophenyl)thiazol-2-amine]",< 1 µM
19,"FC(F)(F)c1cc(Nc2nc(-c3ccc(Cl)c(Cl)c3)cs2)ccc1Cl [compound 60, N-(4-chloro-3-(trifluoromethyl)phenyl)-4-(3,4-dichlorophenyl)thiazol-2-amine]",< 1 µM

row,SMILES,EC50
1,"Fc1ccc(-c2csc(Nc3ccc(Cl)c(C(F)(F)F)c3)n2)c(F)c1 [compound 61, N-(4-chloro-3-(trifluoromethyl)phenyl)-4-(2,4-difluorophenyl)thiazol-2-amine]",< 1 µM
2,"FC(F)(F)c1cc(Nc2nc(-c3ccc(Cl)cc3)cs2)ccc1Cl [compound 62, N-(4-chloro-3-(trifluoromethyl)phenyl)-4-(4-chlorophenyl)thiazol-2-amine]",> 10 µM
3,"CCCCCOc1ccc(Nc2nc(-c3ccc(F)cc3)cs2)cn1 [compound 63, N-(4-(4-fluorophenyl)thiazol-2-yl)-6-(pentyloxy)pyridin-3-amine]",< 1 µM
4,"CCCCCOc1ccc(Nc2nc(-c3ccc(Cl)c(Cl)c3)cs2)cn1 [compound 64, N-(4-(3,4-dichlorophenyl)thiazol-2-yl)-6-(pentyloxy)pyridin-3-amine]",> 10 µM
5,"CCCCCOc1ccc(Nc2nc(-c3ccc(F)cc3F)cs2)cn1 [compound 65, N-(4-(2,4-difluorophenyl)thiazol-2-yl)-6-(pentyloxy)pyridin-3-amine]",> 10 µM
6,"CCCCCOc1ccc(Nc2nc(-c3ccc(Cl)cc3)cs2)cn1 [compound 66, N-(4-(4-chlorophenyl)thiazol-2-yl)-6-(pentyloxy)pyridin-3-amine]",< 1 µM
7,"CCCCCOc1ccc(Nc2nc(-c3cccnc3)cs2)cn1 [compound 67, 6-(pentyloxy)-N-(4-(pyridin-3-yl)thiazol-2-yl)pyridin-3-amine]",< 1 µM
8,"CCCCCOc1ccc(Nc2nc(-c3cccnc3)cs2)cc1F [compound 68, N-(3-fluoro-4-(pentyloxy)phenyl)-4-(pyridin-3-yl)thiazol-2-amine]",< 1 µM
9,"c1cncc(-c2csc(Nc3ccc(CN4CCCCC4)cc3)n2)c1 [compound 69, N-(4-((piperidin-1-yl)methyl)phenyl)-4-(pyridin-3-yl)thiazol-2-amine]",> 10 µM
10,"c1cc(Nc2nc(-c3cccnc3)cs2)cc(OC2Cc3ccccc3C2)c1 [compound 70, N-(3-(2,3-dihydro-1H-inden-2-yloxy)phenyl)-4-(pyridin-3-yl)thiazol-2-amine]",< 1 µM
11,"Fc1cc(Nc2nc(-c3cccnc3)cs2)ccc1OCC1CCCCC1 [compound 71, N-(4-(cyclohexylmethoxy)-3-fluorophenyl)-4-(pyridin-3-yl)thiazol-2-amine]",< 1 µM
12,"Fc1cc(Nc2nc(-c3cccnc3)cs2)ccc1N1CCC(c2ccccc2)CC1 [compound 72, N-(3-fluoro-4-(4-phenylpiperidin-1-yl)phenyl)-4-(pyridin-3-yl)thiazol-2-amine]",< 1 µM
13,"FC(F)(F)Oc1cccc(CNc2nc(-c3cccnc3)cs2)c1 [compound 76, N-(3-(trifluoromethoxy)benzyl)-4-(pyridin-3-yl)thiazol-2-amine]",> 10 µM
14,"FC(F)(F)Oc1ccc(CNc2nc(-c3cccnc3)cs2)cc1 [compound 77, N-(4-(trifluoromethoxy)benzyl)-4-(pyridin-3-yl)thiazol-2-amine]",> 10 µM
15,"c1ccc(-c2ccc(CNc3nc(-c4cccnc4)cs3)cc2)cc1 [compound 78, N-(4-phenyl-benzyl)-4-(pyridin-3-yl)thiazol-2-amine]",> 10 µM
16,"c1ccc(-c2cccc(CNc3nc(-c4cccnc4)cs3)c2)cc1 [compound 79, N-(3-phenyl-benzyl)-4-(pyridin-3-yl)thiazol-2-amine]",> 10 µM
17,"c1ccc(Oc2ccc(CNc3nc(-c4cccnc4)cs3)cc2)cc1 [compound 80, N-(4-phenoxybenzyl)-4-(pyridin-3-yl)thiazol-2-amine]",> 10 µM
18,"CCCCOc1ccc(CNc2nc(-c3cccnc3)cs2)cc1 [compound 81, N-(4-butoxybenzyl)-4-(pyridin-3-yl)thiazol-2-amine]",> 10 µM
